Results published in US7648996B2 (Biotica Technology Limited, priority 2005, dated 2010).
Marks after values point to notes of the source that are not given here.

Tests used:
[1] = tested on: 1138L; test: Monolayer proliferation assay (modified propidium iodide); format: cell-based, human; settings: mean of duplicate experiments
Description: (§1) In vitro evaluation of compounds for anticancer activity in a panel of 12 human tumour cell lines in a monolayer proliferation assay was carried out at the Oncotest Testing Facility, Institute for Experimental Oncology, Oncotest GmbH, Freiburg.
(§2) The Oncotest cell lines were established from human tumor xenografts as described by Roth et al. 1999. The origin of the donor xenografts was described by Fiebig et al. 1999. Other cell lines were either obtained from the NCI (H460, SF-268, OVCAR-3, DU145, MDA-MB-231, MDA-MB-468) or purchased from DSMZ, Braunschweig, Germany (LNCAP).
(§3) All cell lines, unless otherwise specified, are grown at 37° C. in a humidified atmosphere (95% air, 5% CO2) in a ‘ready-mix’ medium containing RPMI 1640 medium, 10% fetal calf serum, and 0.1 mg/mL gentamicin (PAA, Cölbe, Germany).
(§4) A modified propidium iodide assay was used to assess the effects of the test compound(s) on the growth of twelve human tumor cell lines (Dengler et al., (1995)).
(§5) Briefly, cells were harvested from exponential phase cultures by trypsinization, counted and plated in 96 well flat-bottomed microtitre plates at a cell density dependent on the cell line (5-10,000 viable cells/well). After 24 h recovery to allow the cells to resume exponential growth, 0.01 mL of culture medium (6 control wells per plate) or culture medium containing macbecin are added to the wells. Each concentration is plated in triplicate. […] Following 4 days of continuous exposure, cell culture medium with or without test compound is replaced by 0.2 mL of an aqueous propidium iodide (PI) solution (7 mg/L). To measure the proportion of living cells, cells are permeabilized by freezing the plates. After thawing the plates, fluorescence is measured using the Cytofluor 4000 microplate reader (excitation 530 nm, emission 620 nm), giving a direct relationship to the total number of viable cells.
(§6) Growth inhibition is expressed as treated/control×100 (% T/C). For active compounds, IC50 & IC70 values were estimated by plotting compound concentration versus cell viability.

[2] = tested on: 251L; test: as above; format: cell-based, human; settings: mean of duplicate experiments
Description: as §1, §2, §3, §4, §5, §6

[3] = tested on: 394NL; test: as above; format: cell-based, human; settings: mean of duplicate experiments
Description: as §1, §2, §3, §4, §5, §6

[4] = tested on: A498; test: as above; format: cell-based, human; settings: mean of duplicate experiments
Description: as §1, §2, §3, §4, §5, §6

[5] = tested on: DU145; test: as above; format: cell-based, human; settings: mean of duplicate experiments
Description: as §1, §2, §3, §4, §5, §6

[6] = tested on: H460; test: as above; format: cell-based, human; settings: mean of duplicate experiments
Description: as §1, §2, §3, §4, §5, §6

[7] = tested on: LNCAP; test: as above; format: cell-based, human; settings: mean of duplicate experiments
Description: as §1, §2, §3, §4, §5, §6

[8] = tested on: MCF7; test: as above; format: cell-based, human; settings: mean of duplicate experiments
Description: as §1, §2, §3, §4, §5, §6

[9] = tested on: MDA231; test: as above; format: cell-based, human; settings: mean of duplicate experiments
Description: as §1, §2, §3, §4, §5, §6

[10] = tested on: MDA468; test: as above; format: cell-based, human; settings: mean of duplicate experiments
Description: as §1, §2, §3, §4, §5, §6

[11] = tested on: OVCAR3; test: as above; format: cell-based, human; settings: mean of duplicate experiments
Description: as §1, §2, §3, §4, §5, §6

[12] = tested on: SF268; test: as above; format: cell-based, human; settings: mean of duplicate experiments
Description: as §1, §2, §3, §4, §5, §6

[13] = tested on: panel of 12 human tumour cell lines; test: Monolayer proliferation assay, mean across the cell lines tested; format: cell-based; settings: for IC50: Homo sapiens
Description: as §1, §2, §3, §4, §5, §6

[14] = target: FKBP12 (Homo sapiens, UniProt P62942); test: FKBP-12 in vitro binding assay (GdnHCl denaturation curve shift)
From the text: FKBP12 reversibly unfolds in the chemical denaturant guandinium hydrochloride (GdnHCl) and the unfolding can be monitored by the change in the intrinsic fluorescence of the protein (Main et al, 1998). Ligands which specifically bind and stabilise the native state of FKBP12 shift the denaturation curve such that the protein unfolds at higher concentrations of chemical denaturant (Main et al, 1999). From the difference in stability, the ligand-binding constant can be determined using equation 1.
[formula] where ΔGapp is the apparent difference in free energy of unfolding between free and ligand-bound forms, ΔGD-N^H^2^O is the free energy of unfolding in water of free protein, [L] the concentration of ligand and Kd the dissociation constant for the protein-ligand complex (Meiering et al, 1992). The free energy of unfolding can be related to the midpoint of the unfolding transition using the following equation: ΔGD-N^H^2^O=mD-N[D]50% (2) where mD-N is a constant for a given protein and given denaturant and which is proportional to the change in degree of exposure of residues on unfolding (Tanford 1968 and Tanford 1970), and [D]50% is the concentration of denaturant corresponding to the midpoint of unfolding. […] Under conditions where [L]>Kd, then, ΔΔGD-N, can be related to the relative Kds of the two compounds through equation 4: […]

[15] = mean across the 12 cell lines tested
[16] = mean based on the 9 cell lines for which data was available

Sequence of FKBP12 (P62942 whole entry): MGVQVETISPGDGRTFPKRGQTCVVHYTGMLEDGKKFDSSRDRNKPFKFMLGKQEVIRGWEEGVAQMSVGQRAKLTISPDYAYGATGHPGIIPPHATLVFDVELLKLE

| Compound | Cell Growth (Test/Control (%) at drug concentration) ([1]; 1 μM) | Cell Growth (Test/Control (%) at drug concentration) ([1]; 10 μM) | Cell Growth (Test/Control (%) at drug concentration) ([2]; 1 μM) | Cell Growth (Test/Control (%) at drug concentration) ([2]; 10 μM) | Cell Growth (Test/Control (%) at drug concentration) ([3]; 1 μM) | Cell Growth (Test/Control (%) at drug concentration) ([3]; 10 μM) | Cell Growth (Test/Control (%) at drug concentration) ([4]; A498, 1 μM) | Cell Growth (Test/Control (%) at drug concentration) ([4]; A498, 10 μM) | Cell Growth (Test/Control (%) at drug concentration) ([5]; DU145, 1 μM) | Cell Growth (Test/Control (%) at drug concentration) ([5]; DU145, 10 μM) | Cell Growth (Test/Control (%) at drug concentration) ([6]; H460, 1 μM) | Cell Growth (Test/Control (%) at drug concentration) ([6]; H460, 10 μM) | Cell Growth (Test/Control (%) at drug concentration) ([7]; 1 μM) | Cell Growth (Test/Control (%) at drug concentration) ([7]; 10 μM) | Cell Growth (Test/Control (%) at drug concentration) ([8]; MCF7, 1 μM) | Cell Growth (Test/Control (%) at drug concentration) ([8]; MCF7, 10 μM) | Cell Growth (Test/Control (%) at drug concentration) ([11]; OVCAR3, 1 μM) | Cell Growth (Test/Control (%) at drug concentration) ([11]; OVCAR3, 10 μM) | Cell Growth (Test/Control (%) at drug concentration) ([12]; SF268, 1 μM) | Cell Growth (Test/Control (%) at drug concentration) ([12]; SF268, 10 μM) | other results |
| --- | --- | --- | --- | --- | --- | --- | --- | --- | --- | --- | --- | --- | --- | --- | --- | --- | --- | --- | --- | --- | --- |
| CO[C@H]1C[C@@H]2CC[C@@H](C)[C@@](O)(O2)C(=O)C(=O)N2CCCC[C@H]2C(=O)O[C@H]([C@H](C)C[C@@H]2CC[C@@H](O)[C@H](OC)C2)CC(=O)[C@H](C)/C=C(\C)[C@@H](O)[C@@H](OC)C(=O)[C@H](C)C[C@H](C)/C=C/C=C/C=C/1C [Rapamycin, reference compound] | 42% | 21.5% | 75.5% | 40% | 45% | 44% | 58.5% | 48.5% | 50.5% | 54% | 67% | 66% | 61% | 34% | 68.5% | 26.5% | 69% | 69.5% | 53.5% | 46% | Cell Growth (Test/Control (%) at drug concentration) ([9]; MDA231, 1 μM): 67%; Cell Growth (Test/Control (%) at drug concentration) ([9]; MDA231, 10 μM): 63.5%; Cell Growth (Test/Control (%) at drug concentration) ([10]; MDA468, 1 μM): 56.5%; Cell Growth (Test/Control (%) at drug concentration) ([10]; MDA468, 10 μM): 32%; IC50 [13, 15]: 3500 nM; Mean IC70 [13, 15]: 9.1 µM |
| COC1CC2CCC(C)C(O)(O2)C(=O)C(=O)N2CCCCC2C(=O)OC(C(C)CC2CCC(OCCO)CC2)CC(=O)C(C)C=C(C)C(O)C(OC)C(=O)C(C)CC(C)C=CC=CC=C1C (centres unmarked) [39-desmethoxy-40-O-(2-hydroxy)ethyl rapamycin] | 59% | 4% | 90% | 31% | 55% | 6% | – | – | 56% | 7% | 76% | 25% | 49% | 18% | 77% | 10% | 85% | 9% | 63% | 7% | IC50 [13, 16]: 2200 nM; Mean IC70 [13, 16]: 5.513* microM; Kd [14]: 3.7 nM |
| COC1CC2CCC(C)C(O)(O2)C(=O)C(=O)N2CCCCC2C(=O)OC(C(C)CC2CCC(OC(=O)C(C)(CO)CO)CC2)CC(=O)C(C)C=C(C)C(O)C(OC)C(=O)C(C)CC(C)C=CC=CC=C1C (centres unmarked) [39-desmethoxy-40-O-[2,2-bis(hydroxymethyl)propionyl]rapamycin] | 50% | 7.5% | 85.5% | 13% | 46% | 13% | 66% | 19.5% | 62.5% | 13.5% | 66% | 12% | 48.5% | 20.5% | 67% | 9% | 73.5% | 39% | 62.5% | 12% | Cell Growth (Test/Control (%) at drug concentration) ([9]; MDA231, 1 μM): 70.5%; Cell Growth (Test/Control (%) at drug concentration) ([9]; MDA231, 10 μM): 13.5%; Cell Growth (Test/Control (%) at drug concentration) ([10]; MDA468, 1 μM): 66%; Cell Growth (Test/Control (%) at drug concentration) ([10]; MDA468, 10 μM): 9%; IC50 [13, 15]: 2000 nM; Mean IC70 [13, 15]: 4.5 µM; Kd [14]: 1.1 nM |
